Data taken from paper PMC8589421, “Impact of Type II LRRK2 inhibitors on signaling and mitophagy” (Biochemical Journal, 2021).
Entries after “also recorded” stand apart in the source; their conditions may differ. Where two headings read alike, the source gives them in different places.

Assays:
[1] = test system: LRRK2 mediated phosphorylation of Rab10 at Thr73; assay: Rab10 Thr73 phospho-immunoblot in wild-type MEFs; format: cell-based, mouse; details: for IC50: Mus musculus
Protocol: (§1) Wild-type and homozygous LRRK2 [R1441C] […] All cells were grown at 37°C, 5% (by vol) CO2 in a humidified atmosphere and regularly tested for mycoplasma contamination.
(§2) Inhibitors were dissolved in dimethyl sulfoxide (DMSO) (Sigma, #D2650). The inhibitors were diluted 1000× into cell medium. The equivalent volume of DMSO was added to the minus inhibitor controls. Experiments were performed in six-well plates, 10 cm dishes or 15 cm dishes depending on the amount of cell extract required.
(§3) Lysates were incubated on ice for 30 min and clarified by centrifugation at 20 800×g at 4°C for 20 min. Supernatants were quantified by Bradford assay (Bio-Rad Protein Assay Dye Reagent Concentrate #5000006) and samples prepared in 1× lithium dodecyl sulfate sample buffer final concentration (NuPage LDS Sample buffer 4× Invitrogen, #NP0008). When not deployed immediately, lysates were snap-frozen in liquid nitrogen and stored at −80°C until use.
(§4) Cell extracts were mixed with a quarter of a volume of NuPage LDS Sample buffer 4× Invitrogen and heated at 95°C for 5 min. […] At the end of electrophoresis, proteins were electrophoretically transferred onto the nitrocellulose membrane (GE Healthcare, Amersham Protran Supported 0.45 µm NC) at 100 V for 90 min on ice in the transfer buffer (48 mM Tris–HCl and 39 mM glycine supplemented with 20% methanol). Transferred membrane was blocked with 5% (w/v) skim milk powder dissolved in TBS-T [20 mM Tris–HCl, pH 7.5, 150 mM NaCl and 0.1% (v/v) Tween 20] at room temperature for 1 h. The membrane was typically cropped into three pieces, namely the ‘top piece’ (from the top of the membrane to 75 kDa), the ‘middle piece’ (between 75 and 30 kDa) and the ‘bottom piece’ (from 30 kDa to the bottom of the membrane). All primary antibodies were used at 1 μg/ml final concentration and incubated in TBS-T containing 5% (by mass) bovine serum albumin with exception of α-tubulin and GAPDH antibodies that were diluted 1 : 5000 and 1 : 2000, respectively. The top piece was incubated with the indicated rabbit anti-LRRK2 phosphorylation site antibody multiplexed with mouse anti-LRRK2 C-terminus total antibody. The middle piece was incubated with mouse anti-GAPDH or anti-α-tubulin antibody. The bottom pieces were incubated with indicated total and phospho-Rab antibodies. Membranes were incubated in primary antibody overnight at 4°C. Prior to secondary antibody incubation, membranes were washed three times with TBS-T for 10 min each. […] Membranes were washed with TBS-T for three times with a 10 min incubation for each wash. Protein bands were acquired via near infrared fluorescent detection using the Odyssey CLx imaging system and quantified using the Image Studio software.

LRRK2 at Ser935 = assay: LRRK2 Ser935 phospho-immunoblot in wild-type MEFs; format: cell-based, mouse
Protocol: as §1, §2, §3, §4

[2] = test system: LRRK2 Ser935, Ser910, Ser955 and Ser973; assay: LRRK2 biomarker site phosphorylation in primary human neutrophils; format: cell-based; details: up to 3 μM
Protocol: Cell extracts were mixed with a quarter of a volume of NuPage LDS Sample buffer 4× Invitrogen and heated at 95°C for 5 min. […] At the end of electrophoresis, proteins were electrophoretically transferred onto the nitrocellulose membrane (GE Healthcare, Amersham Protran Supported 0.45 µm NC) at 100 V for 90 min on ice in the transfer buffer (48 mM Tris–HCl and 39 mM glycine supplemented with 20% methanol). Transferred membrane was blocked with 5% (w/v) skim milk powder dissolved in TBS-T [20 mM Tris–HCl, pH 7.5, 150 mM NaCl and 0.1% (v/v) Tween 20] at room temperature for 1 h. The membrane was typically cropped into three pieces, namely the ‘top piece’ (from the top of the membrane to 75 kDa), the ‘middle piece’ (between 75 and 30 kDa) and the ‘bottom piece’ (from 30 kDa to the bottom of the membrane). All primary antibodies were used at 1 μg/ml final concentration and incubated in TBS-T containing 5% (by mass) bovine serum albumin with exception of α-tubulin and GAPDH antibodies that were diluted 1 : 5000 and 1 : 2000, respectively. The top piece was incubated with the indicated rabbit anti-LRRK2 phosphorylation site antibody multiplexed with mouse anti-LRRK2 C-terminus total antibody. […] Protein bands were acquired via near infrared fluorescent detection using the Odyssey CLx imaging system and quantified using the Image Studio software. […]

Compound Cc1ccc(C(=O)Nc2ccc(CN3CCN(C)CC3)c(C(F)(F)F)c2)cc1C#Cc1cnc2[nH]ncc2c1 [GZD-824] has an IC50 ([1]; 2 h, Figure 4, read-out: IC50 for dephosphorylation of Rab10, wild type MEFs (estimate in text)) of 70 nM, an IC50 ([1]; 2 h, wild type MEFs littermate matched to LRRK2[G2019S], 2 h, panel (B), read-out: LRRK2 WT Rab10 pThr73 IC50) of 65.9 nM and an IC50 ([1]; 2 h, wild type MEFs littermate matched to LRRK2[R1441C], 2 h, panel (A), read-out: LRRK2 WT Rab10 pThr73 IC50) of 86.5 nM. The IC50 ([1]; 2 h, wild-type MEFs, 2 h, Figure 2A, read-out: IC50 inhibition of Rab10 phosphorylation) was roughly 300 nM, the “Rab10 phosphorylation level after treatment” value ([1]; wild-type MEFs, 1 μM, 2 h) was “almost background levels; also recorded: almost basal levels” and the “Rab10 phosphorylation over 24 h time course” value ([1]; wild-type MEFs, 1 μM, 24 h) was “remained suppressed”. The “time to 50% reduction of Rab10 phosphorylation” value ([1]; wild-type MEFs, 1 μM, Figure 2C) was roughly 10 min, the “effect on LRRK2 Ser935 phosphorylation” value (LRRK2 at Ser935; MEFs, 2 h dose response) was “did not induce dephosphorylation” and the “Ser935 phosphorylation over 24 h time course” value (LRRK2 at Ser935; wild-type MEFs, 1 μM, 24 h) was “unaffected”. For the same compound, the “effect on LRRK2 Ser935 phosphorylation” value (LRRK2 at Ser935; wild-type MEFs, 10 μM, 2 h, Supplemental Figure S2A) was “did not reduce LRRK2 phosphorylation at Ser935 significantly” and the “phosphorylation of Ser935, Ser910, Ser955 and Ser973” value [2] was “unaffected”.
